Measurements as given in patent US20210255193A1, “LYSINE REACTIVE PROBES AND USES THEREOF” (The Scripps Research Institute, priority 2017, published 2021).

Key:
Assay in all cases: competitive isoTOP-ABPP
[1] = target: T1, ABCE1 ATP-binding cassette sub-family E member 1 (Homo sapiens, UniProt P61221); conditions: for R value (DMSO/fragment) for probe 1 labeling / isoTOP-ABPP reactivity ratio at lysine P61221_K478 / isoTOP-ABPP reactivity ratio at lysine P61221_K191: 231 sol
T1 construct: isoTOP-ABPP experiments performed in cell lysates (in vitro); endogenous in cells; host or cells: soluble proteome of human cancer cell lines (MDA-MB-231, Ramos, Jurkat)
Description: (§1) In vitro covalent fragment treatment for isoTOP-ABPP. All compounds were made up as solutions in DMSO (100×) and were used at a final concentration of 50 μM for activated esters and 100 μM for guanidinylating agents. For each profiling sample, 0.5 ml of lysate was treated with 5 μl of the 100× compound stock solution or 5 μl of DMSO. Samples were treated with activated esters for
(§2) STP-alkyne labeling and click chemistry. For concentration-dependent reactivity measurements by isoTOP-ABPP, 0.5 ml proteome aliquots were treated at ambient temperature with 1 mM STP-alkyne 1 (5 μl of 100 mM stock in DMSO) and 0.1 mM STP alkyne 1 (5 μl of 10 mM stock in DMSO), respectively. For competitive isoTOP-ABPP, after in vitro fragment treatment (detailed above), the samples were labeled for 1 h at ambient temperature with 0.1 mM STP-alkyne 1 (5 μl of 10 mM stock in DMSO). Samples were conjugated by copper-mediated azide-alkyne cycloaddition (CuAAC) to either the light (1 mM STP-alkyne or fragment treated) or heavy (0.1 mM STP-alkyne or DMSO treated) TEV tags (10 μl of 5 mM stocks in DMSO, final concentration=100 μM) using tris(2-carboxyethyl)phosphine hydrochloride
(§3) R value calculation and processing. The ratios of light and heavy MS1 peaks for each unique peptide were quantified with a CIMAGE software using default parameters (3 MS1 acquisitions per peak and signal to noise threshold set to 2.5). For reactivity measurements by isoTOP-ABPP, the R value was calculated from the ratio of MS1 peak areas, comparing the 1 mM STP alkyne sample (light TEV tag) with the 0.1 mM STP alkyne sample (heavy TEV tag). For competitive isoTOP-ABPP, the R value was calculated from the ratio of MS1 peak areas, comparing the DMSO treated sample (heavy TEV tag) with the compound treated sample (light TEV tag). […] Ratios for unique peptide entries are calculated for each experiment; overlapping peptides with the same modified lysine (for example, different charge states, MudPIT chromatographic steps or tryptic termini) are grouped together and the median ratio is reported as the final ratio (R). The peptide ratios reported by CIMAGE were further filtered to ensure the removal or correction of low-quality ratios in each individual data set. The quality filters applied were the following: removal of half tryptic peptides; for ratios with high standard deviations from the median (90% of the median or above) the lowest ratio was taken instead of the median; removal of peptides with R=20 and only a single MS2 event triggered during the elution of the parent ion; manual annotation of all the peptides with ratios of 20, removing any peptides with low quality elution profiles that remained after the previous curation steps (only done for competitive isoTOP-ABPP).
(§4) Cross-data processing for fragment screening. For compound treated samples, biological replicates of the same condition were averaged, if the standard deviation was below 60% of the mean; otherwise, for lysines with at least one R value <4 for a particular compound, the lowest value of the ratio set was taken. For lysines, where all R values for a particular compound were ≥4, the average was reported. For peptides containing several possible modified lysines, the lysine with the highest number of quantification events was used for analysis and the remaining, redundant peptides were reported as alternative modification sites. Peptides included in the aggregate dataset (those used for further bioinformatics and statistical analyses) were required to have been quantified in 2 experiments for competitive isoTOP-ABPP. Lysines were categorized as liganded, if they had at least one ratio R≥4 (hit fragments). For liganded lysines with R=20 for all liganding events, lysines were required to have been quantified with R=20 in two separate experiments and were further required to have been quantified with R<20 in one additional experiment.

[2] = target: T2, AGFG1 Arf-GAP domain and FG repeat-containing protein 1 (Homo sapiens, UniProt P52594); type: binding; set-up: key to isoTOP-ABPP reactivity ratio at lysine P52594_K134: R = MS1 peak area ratio, DMSO (heavy) / compound-treated (light); conditions: for R value (DMSO/fragment) for probe 1 labeling: P52594_K134; for R value (DMSO/fragment) for probe 1 labeling / isoTOP-ABPP reactivity ratio at lysine P52594_K134: 231 sol
T2 construct: isoTOP-ABPP experiments performed in cell lysates (in vitro); endogenous in cells; host or cells: soluble proteome of human cancer cell lines (MDA-MB-231, Ramos, Jurkat)
T2 sequence (P52594 1-562): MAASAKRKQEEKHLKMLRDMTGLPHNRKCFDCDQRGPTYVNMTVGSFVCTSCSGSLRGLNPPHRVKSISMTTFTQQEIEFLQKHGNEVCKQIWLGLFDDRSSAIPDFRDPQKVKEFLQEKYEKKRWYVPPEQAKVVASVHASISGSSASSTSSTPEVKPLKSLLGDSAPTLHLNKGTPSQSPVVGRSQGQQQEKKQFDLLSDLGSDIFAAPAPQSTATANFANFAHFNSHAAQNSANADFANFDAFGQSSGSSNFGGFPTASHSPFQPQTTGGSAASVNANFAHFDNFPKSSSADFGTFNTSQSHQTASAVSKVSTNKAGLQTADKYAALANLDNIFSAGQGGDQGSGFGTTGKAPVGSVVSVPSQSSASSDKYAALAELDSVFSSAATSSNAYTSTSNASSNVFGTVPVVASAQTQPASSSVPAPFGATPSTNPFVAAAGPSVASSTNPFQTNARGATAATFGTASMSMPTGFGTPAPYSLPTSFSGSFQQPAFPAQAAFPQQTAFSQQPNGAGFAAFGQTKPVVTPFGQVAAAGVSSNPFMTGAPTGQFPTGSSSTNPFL
Description: as §1, §2, §3, §4

[3] = target: T3, HDHD3 Haloacid dehalogenase-like hydrolase domain-containing protein 3 (Homo sapiens, UniProt Q9BSH5); type: binding; set-up: key to isoTOP-ABPP reactivity ratio at lysine Q9BSH5_K15: R = MS1 peak area ratio, DMSO (heavy) / compound-treated (light); conditions: for R value (DMSO/fragment) for probe 1 labeling: Q9BSH5_K15; for R value (DMSO/fragment) for probe 1 labeling / isoTOP-ABPP reactivity ratio at lysine Q9BSH5_K15: 231 sol
T3 construct: isoTOP-ABPP experiments performed in cell lysates (in vitro); endogenous in cells; host or cells: soluble proteome of human cancer cell lines (MDA-MB-231; Ramos and Jurkat also prepared)
T3 sequence (Q9BSH5 1-251): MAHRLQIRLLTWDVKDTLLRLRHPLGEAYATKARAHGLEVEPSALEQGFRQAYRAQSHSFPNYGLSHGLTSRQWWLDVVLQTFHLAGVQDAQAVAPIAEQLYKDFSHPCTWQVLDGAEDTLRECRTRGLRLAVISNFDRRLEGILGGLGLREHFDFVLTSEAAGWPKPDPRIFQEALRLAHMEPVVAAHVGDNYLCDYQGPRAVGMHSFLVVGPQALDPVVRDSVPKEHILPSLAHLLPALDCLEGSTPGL
Description: as §1, §2, §3, §4

SMILES: COC(=O)NC(=NC(=O)OCC1c2ccccc2-c2ccccc21)n1cccn1 [fragment 49, N-Methoxycarbonyl-N′-9-fluorenylmethoxycarbonyl-pyrazole-1-carboxamidine]
- isoTOP-ABPP ratio, lysine P61221_K191 ([1]; 100 uM_231_sol_in vitro): 20.0
- isoTOP-ABPP ratio, lysine P61221_K478 ([1]; 100 uM_231_sol_in vitro): 1.0
- isoTOP-ABPP ratio, lysine P52594_K134 ([2]; 100 uM_231_sol_in vitro): 0.8
- isoTOP-ABPP ratio, lysine Q9BSH5_K15 ([3]; 100 uM_231_sol_in vitro): 3.5

SMILES: O=C(Oc1c(F)c(F)c(F)c(F)c1F)C(c1ccccc1)c1ccccc1 [fragment 20, Pentafluorophenyl 2,2-diphenylacetate]
- R value (DMSO/fragment) for probe 1 labeling ([1]; P61221_K191, 50 uM, in vitro): 0.9
- R value (DMSO/fragment) for probe 1 labeling ([1]; P61221_K478, 50 uM, in vitro): 1.2
- R value (DMSO/fragment) for probe 1 labeling ([2]; 50 uM, in vitro): 1.0
- R value (DMSO/fragment) for probe 1 labeling ([3]; 50 uM, in vitro): 1.1

SMILES: CCn1cc(C(=O)Oc2c(F)c(F)c(F)c(F)c2F)c(=O)c2ccc(C)nc21 [fragment 28, Pentafluorophenyl 1-ethyl-7-methyl-4-oxo-1,4-dihydro-1,8-naphthyridine-3-carboxylate]
- isoTOP-ABPP reactivity ratio at lysine P61221_K478 ([1]; 50 uM, in vitro): 1.0
- isoTOP-ABPP reactivity ratio at lysine P52594_K134 ([2]; 50 uM, in vitro): 1.0
- isoTOP-ABPP reactivity ratio at lysine Q9BSH5_K15 ([3]; 50 uM, in vitro): 13.8

SMILES: CC(C)(C)OC(=O)NCCCC(=O)Oc1ccc([N+](=O)[O-])cc1[N+](=O)[O-] [fragment 41, 2,4-Dinitrophenyl 4-((tert-butoxycarbonyl)amino)butanoate]
- isoTOP-ABPP ratio (R) at liganded lysine P61221_K191 ([1]; 50 uM, in vitro, sol, 231): 1.2
- isoTOP-ABPP ratio (R) at liganded lysine P61221_K478 ([1]; 50 uM, in vitro, sol, 231): 1.3
- isoTOP-ABPP ratio (R) at liganded lysine P52594_K134 ([2]; 50 uM, in vitro, sol, 231): 20.0
- isoTOP-ABPP ratio (R) at liganded lysine Q9BSH5_K15 ([3]; 50 uM, in vitro, sol, 231): 2.8

SMILES: O=C(Oc1c(F)c(F)c(F)c(F)c1F)C1CCN(C(=O)OCc2ccccc2)CC1 [fragment 24, 1-Benzyl 4-(pentafluorophenyl) piperidine-1,4-dicarboxylate]
- isoTOP-ABPP reactivity ratio at lysine P61221_K478 ([1]; 50 uM, in vitro): 1.4
- isoTOP-ABPP reactivity ratio at lysine P52594_K134 ([2]; 50 uM, in vitro): 1.5
- isoTOP-ABPP reactivity ratio at lysine Q9BSH5_K15 ([3]; 50 uM, in vitro): 2.3

SMILES: O=C(Oc1c(F)c(F)c(F)c(F)c1F)c1ccc2ccccc2n1 [fragment 25, Pentafluorophenyl quinoline-2-carboxylate]
- isoTOP-ABPP reactivity ratio at lysine P61221_K191 ([1]; 50 uM, in vitro): 1.7
- isoTOP-ABPP reactivity ratio at lysine P61221_K478 ([1]; 50 uM, in vitro): 1.5
- isoTOP-ABPP reactivity ratio at lysine P52594_K134 ([2]; 50 uM, in vitro): 1.1
- isoTOP-ABPP reactivity ratio at lysine Q9BSH5_K15 ([3]; 50 uM, in vitro): 4.0

SMILES: Cn1cc(CC(=O)Oc2ccc([N+](=O)[O-])cc2[N+](=O)[O-])c2ccccc21 [fragment 32, 2,4-Dinitrophenyl 2-(1-methyl-1H-indol-3-yl)acetate]
- isoTOP-ABPP reactivity ratio at lysine P61221_K191 ([1]; 50 uM, in vitro): 1.3
- isoTOP-ABPP reactivity ratio at lysine P61221_K478 ([1]; 50 uM, in vitro): 1.2
- isoTOP-ABPP reactivity ratio at lysine P52594_K134 ([2]; 50 uM, in vitro): 19.9
- isoTOP-ABPP reactivity ratio at lysine Q9BSH5_K15 ([3]; 50 uM, in vitro): 6.7

SMILES: COc1cc(CCC(=O)Oc2c(F)c(F)c(F)c(F)c2F)cc(OC)c1OC [fragment 23, Pentafluorophenyl 3-(3,4,5-trimethoxyphenyl)propanoate]
- R value (DMSO/fragment) for probe 1 labeling ([1]; P61221_K191, 50 uM, in vitro): 1.3
- R value (DMSO/fragment) for probe 1 labeling ([1]; P61221_K478, 50 uM, in vitro): 1.5
- R value (DMSO/fragment) for probe 1 labeling ([2]; 50 uM, in vitro): 1.7
- R value (DMSO/fragment) for probe 1 labeling ([3]; 50 uM, in vitro): 1.3
